Legend:
Human δ-opioid (DOP) = biological target: T1, Human δ-opioid (DOP) (Homo sapiens, UniProt P41143); assay: Radioligand binding, human δ-opioid (DOP) membranes, FlashPlate, [3H]-Bremazocine; settings: compound at 10 μM, [3H]-Bremazocine
T1 construct: purchased Perkin Elmer Biosignal
Outline: (§1)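 Cloned human receptor membranes were coated onto FlashPlate wells and incubated with radioligand and compound (added from a 0.5 mM DMSO daughter plate) for 1 hour at room temperature in the dark. Scintillation counting gave percent inhibition, with DMSO defining total and reference ligand defining non-specific binding.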

Human κ-Opioid (KOP) = biological target: T2, Human κ-Opioid (KOP) (Homo sapiens, UniProt P41145); assay: Radioligand binding, human κ-opioid (KOP) membranes, filtration, [3H]-Diprenorphine; settings: compound at 10 μM, [3H]-Diprenorphine
T2 construct: purchased Perkin Elmer Biosignal
Outline: (§2)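 Percent inhibition of radioligand binding measured on recombinant human membranes: NK1 with [125I]-Substance P, KOP with [3H]-Diprenorphine. Incubation 1 h at room temperature, then harvest onto 0.3% PEI-soaked filters, cold Tris-HCl pH 7.4 washes and scintillation counting; non-specific binding from reference ligand wells.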

Human Melanocortin (MC3) = biological target: T3, Human Melanocortin (MC3) (Homo sapiens, UniProt P41968); assay: Radioligand binding, human melanocortin MC3 membranes, FlashPlate, [125I]-NDP-αMSH; settings: compound at 10 μM, [125I]-NDP-αMSH
T3 construct: purchased Perkin Elmer Biosignal
Outline: as §1

Human Melanocortin (MC4) = biological target: T4, Human Melanocortin (MC4) (Homo sapiens, UniProt P32245); assay: Radioligand binding, human melanocortin MC4 membranes, FlashPlate, [125I]-NDP-αMSH; settings: compound at 10 μM, [125I]-NDP-αMSH
T4 construct: purchased Perkin Elmer Biosignal
Outline: as §1

Human melanocortin (MC5) = biological target: T5, Human melanocortin (MC5) (Homo sapiens, UniProt P33032); assay: Radioligand binding, human melanocortin MC5 membranes, FlashPlate, [125I]-NDP-αMSH; settings: compound at 10 μM, [125I]-NDP-αMSH
T5 construct: purchased Perkin Elmer Biosignal
Outline: as §1

[1] = biological target: T6, Human melanin-concentrating hormone (MCH1) (Homo sapiens, UniProt Q99705); assay: Radioligand binding, human melanin-concentrating hormone MCH1 membranes, FlashPlate, [125I]-S36057; settings: compound at 10 μM
T6 construct: purchased Perkin Elmer Biosignal
Outline: as §1

Human μ-opioid (MOP) = biological target: T7, Human μ-opioid (MOP) (Homo sapiens, UniProt P35372); assay: Radioligand binding, human μ-opioid (MOP) membranes, FlashPlate, [3H]-Naloxone; settings: compound at 10 μM, [3H]-Naloxone
T7 construct: purchased Perkin Elmer Biosignal
Outline: as §1

Human neurokinin (NK1) = biological target: T8, Human neurokinin (NK1) (Homo sapiens, UniProt P25103); assay: Radioligand binding, human neurokinin NK1 membranes, filtration, [125I]-Substance P; settings: compound at 10 μM, [125I]-Substance P
T8 construct: purchased Perkin Elmer Biosignal
Outline: as §2

[2] = biological target: T9, Human neuropeptide Y (NPY-Y1) (Homo sapiens, UniProt P25929); assay: Radioligand binding, human neuropeptide Y NPY-Y1 membranes, FlashPlate, [125I]-PYY; settings: compound at 10 μM, [125I]-PYY
T9 construct: purchased Perkin Elmer Biosignal
T9 sequence (P25929 1-384): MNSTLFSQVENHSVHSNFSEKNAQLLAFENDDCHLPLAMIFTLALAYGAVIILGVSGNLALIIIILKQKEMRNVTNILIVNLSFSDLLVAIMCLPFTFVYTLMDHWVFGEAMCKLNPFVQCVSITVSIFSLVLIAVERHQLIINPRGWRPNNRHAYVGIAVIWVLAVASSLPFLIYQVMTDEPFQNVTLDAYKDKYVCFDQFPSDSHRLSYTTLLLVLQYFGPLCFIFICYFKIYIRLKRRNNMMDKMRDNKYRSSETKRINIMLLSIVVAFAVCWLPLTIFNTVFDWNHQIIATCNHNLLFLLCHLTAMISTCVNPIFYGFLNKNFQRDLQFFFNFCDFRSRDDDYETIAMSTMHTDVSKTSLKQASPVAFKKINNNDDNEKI
Outline: as §1

Human opioid (ORL1) = biological target: T10, Human opioid (ORL1) (Homo sapiens, UniProt P41146); assay: Radioligand binding, human opioid ORL1 membranes, FlashPlate, [125I]-Nociceptin; settings: compound at 10 μM, [125I]-Nociceptin
T10 construct: purchased Perkin Elmer Biosignal
Outline: as §1

Mouse urotensin (mUR2) = biological target: T11, Mouse urotensin (mUR2) (Mus musculus, UniProt Q8VIH9); assay: Radioligand binding, mouse urotensin mUR2 membranes, FlashPlate, [125I]-Urotensin II; settings: compound at 10 μM, [125I]-Urotensin II
T11 construct: purchased Perkin Elmer Biosignal
T11 sequence (Q8VIH9 1-385): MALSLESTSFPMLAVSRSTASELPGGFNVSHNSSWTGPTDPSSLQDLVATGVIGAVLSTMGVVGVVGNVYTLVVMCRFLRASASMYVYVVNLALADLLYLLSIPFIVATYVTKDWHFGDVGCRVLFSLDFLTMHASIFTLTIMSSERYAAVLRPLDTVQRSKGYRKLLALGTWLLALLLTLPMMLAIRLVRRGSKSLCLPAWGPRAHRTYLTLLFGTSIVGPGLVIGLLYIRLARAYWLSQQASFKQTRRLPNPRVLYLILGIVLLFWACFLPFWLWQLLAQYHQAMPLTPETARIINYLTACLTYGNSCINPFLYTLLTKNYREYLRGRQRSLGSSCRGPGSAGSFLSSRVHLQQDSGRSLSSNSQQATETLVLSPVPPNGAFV
Outline: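 Cloned mouse urotensin (mUR2) receptor membranes from Perkin Elmer Biosignal were immobilized in FlashPlate microplates using a proprietary coating. Each well got 19.5 μl buffer, then 0.5 μl of DMSO, reference ligand, or compound. Adding 5 μl of [125I]-Urotensin II, diluted to 5× final concentration in binding buffer, started binding. Plates were sealed with TopSeal-A and incubated 1 hour at room temperature in the dark. Wells were counted for 30 seconds each on a TopCount after a 60-second delay, and percentage inhibition was calculated.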

[3] = [125I]-S36057, human MCH1 membranes

T4 sequence (P32245 whole entry): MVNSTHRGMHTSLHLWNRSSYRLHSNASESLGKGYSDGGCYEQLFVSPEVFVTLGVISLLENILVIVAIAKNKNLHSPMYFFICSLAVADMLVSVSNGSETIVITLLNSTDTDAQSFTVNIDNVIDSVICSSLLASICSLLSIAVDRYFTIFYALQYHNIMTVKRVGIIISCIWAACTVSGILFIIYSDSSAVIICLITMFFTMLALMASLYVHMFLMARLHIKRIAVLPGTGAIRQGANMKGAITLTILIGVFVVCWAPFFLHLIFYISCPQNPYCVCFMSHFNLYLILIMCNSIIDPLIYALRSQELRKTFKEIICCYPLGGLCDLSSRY
T2 sequence (P41145 whole entry): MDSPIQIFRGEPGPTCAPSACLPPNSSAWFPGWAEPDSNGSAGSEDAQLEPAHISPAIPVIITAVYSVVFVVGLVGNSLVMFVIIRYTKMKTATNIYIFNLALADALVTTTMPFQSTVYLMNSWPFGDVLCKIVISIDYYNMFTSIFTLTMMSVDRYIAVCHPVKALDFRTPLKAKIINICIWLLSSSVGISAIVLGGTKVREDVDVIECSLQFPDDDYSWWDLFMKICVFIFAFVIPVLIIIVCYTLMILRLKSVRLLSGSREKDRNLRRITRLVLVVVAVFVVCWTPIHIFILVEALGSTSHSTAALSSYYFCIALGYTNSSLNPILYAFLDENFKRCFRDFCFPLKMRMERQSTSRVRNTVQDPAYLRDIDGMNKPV
T5 sequence (P33032 whole entry): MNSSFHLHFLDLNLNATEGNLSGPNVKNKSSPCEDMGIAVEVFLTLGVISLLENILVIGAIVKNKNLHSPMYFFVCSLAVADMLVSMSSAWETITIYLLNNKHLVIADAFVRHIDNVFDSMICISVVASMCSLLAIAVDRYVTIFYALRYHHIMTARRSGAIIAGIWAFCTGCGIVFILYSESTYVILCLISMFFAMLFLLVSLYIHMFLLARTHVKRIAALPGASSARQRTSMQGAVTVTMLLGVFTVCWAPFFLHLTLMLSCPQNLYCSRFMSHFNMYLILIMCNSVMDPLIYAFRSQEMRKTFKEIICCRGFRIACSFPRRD
T10 sequence (P41146 whole entry): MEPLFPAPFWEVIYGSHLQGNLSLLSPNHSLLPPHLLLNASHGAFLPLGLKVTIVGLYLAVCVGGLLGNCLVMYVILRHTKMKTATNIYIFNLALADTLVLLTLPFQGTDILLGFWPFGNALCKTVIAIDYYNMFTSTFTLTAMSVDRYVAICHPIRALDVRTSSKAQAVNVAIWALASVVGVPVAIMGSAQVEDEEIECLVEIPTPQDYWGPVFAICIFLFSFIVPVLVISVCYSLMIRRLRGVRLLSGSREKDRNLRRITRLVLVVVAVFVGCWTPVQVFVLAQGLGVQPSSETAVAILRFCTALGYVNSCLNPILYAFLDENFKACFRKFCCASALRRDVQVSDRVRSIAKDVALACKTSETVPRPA
T8 sequence (P25103 whole entry): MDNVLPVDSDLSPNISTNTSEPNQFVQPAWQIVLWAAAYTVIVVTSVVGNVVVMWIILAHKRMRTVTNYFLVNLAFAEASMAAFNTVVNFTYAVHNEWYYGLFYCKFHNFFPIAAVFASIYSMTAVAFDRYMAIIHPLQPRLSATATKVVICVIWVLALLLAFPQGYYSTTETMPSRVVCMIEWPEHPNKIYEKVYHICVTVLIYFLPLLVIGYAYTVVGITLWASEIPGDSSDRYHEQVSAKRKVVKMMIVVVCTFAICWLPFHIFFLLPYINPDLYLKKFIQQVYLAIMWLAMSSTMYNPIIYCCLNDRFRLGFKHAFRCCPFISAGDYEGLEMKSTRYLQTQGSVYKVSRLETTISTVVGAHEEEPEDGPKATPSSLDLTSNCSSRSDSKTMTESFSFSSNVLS
T3 sequence (P41968 whole entry): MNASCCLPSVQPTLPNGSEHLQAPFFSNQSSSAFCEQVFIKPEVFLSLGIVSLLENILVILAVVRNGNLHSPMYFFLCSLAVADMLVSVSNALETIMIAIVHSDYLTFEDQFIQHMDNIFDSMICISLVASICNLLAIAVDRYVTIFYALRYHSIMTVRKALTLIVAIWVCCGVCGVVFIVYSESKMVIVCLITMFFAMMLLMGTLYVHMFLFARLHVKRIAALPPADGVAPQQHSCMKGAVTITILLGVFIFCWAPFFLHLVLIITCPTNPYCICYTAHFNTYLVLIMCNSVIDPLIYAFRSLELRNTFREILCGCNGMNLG
T6 sequence (Q99705 whole entry): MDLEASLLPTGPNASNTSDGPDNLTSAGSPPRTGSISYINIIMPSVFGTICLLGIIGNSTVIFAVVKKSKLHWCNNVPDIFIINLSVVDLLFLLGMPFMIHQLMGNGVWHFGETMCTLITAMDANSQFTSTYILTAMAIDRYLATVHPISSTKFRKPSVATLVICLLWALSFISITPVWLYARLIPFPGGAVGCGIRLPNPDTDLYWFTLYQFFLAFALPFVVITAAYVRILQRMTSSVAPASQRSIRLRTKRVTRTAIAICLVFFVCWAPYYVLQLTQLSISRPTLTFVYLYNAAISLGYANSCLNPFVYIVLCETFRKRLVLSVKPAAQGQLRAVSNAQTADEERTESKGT
T1 sequence (P41143 whole entry): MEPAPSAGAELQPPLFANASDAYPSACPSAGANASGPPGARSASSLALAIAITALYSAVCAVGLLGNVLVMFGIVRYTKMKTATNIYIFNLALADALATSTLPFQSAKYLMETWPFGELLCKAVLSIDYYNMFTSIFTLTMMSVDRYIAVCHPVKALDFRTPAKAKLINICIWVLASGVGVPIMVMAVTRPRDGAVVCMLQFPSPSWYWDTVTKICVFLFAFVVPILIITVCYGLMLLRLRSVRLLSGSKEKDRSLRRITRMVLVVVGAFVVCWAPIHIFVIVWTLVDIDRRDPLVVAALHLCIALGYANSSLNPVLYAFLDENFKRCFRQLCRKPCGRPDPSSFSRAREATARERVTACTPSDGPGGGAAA
T7 sequence (P35372 whole entry): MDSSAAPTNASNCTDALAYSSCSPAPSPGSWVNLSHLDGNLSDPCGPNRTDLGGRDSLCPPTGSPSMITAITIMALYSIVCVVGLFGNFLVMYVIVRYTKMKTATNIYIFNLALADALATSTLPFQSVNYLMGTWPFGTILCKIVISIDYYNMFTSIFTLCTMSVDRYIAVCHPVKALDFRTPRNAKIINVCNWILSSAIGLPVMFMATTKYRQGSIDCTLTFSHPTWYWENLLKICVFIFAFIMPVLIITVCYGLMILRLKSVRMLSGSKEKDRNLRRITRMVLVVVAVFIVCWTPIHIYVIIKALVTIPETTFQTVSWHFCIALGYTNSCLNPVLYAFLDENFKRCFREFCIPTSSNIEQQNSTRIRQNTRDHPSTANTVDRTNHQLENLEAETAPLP

## NCCC(=O)NC1C(OCc2ccc3ccccc3c2)OC(COCc2ccccc2)C(O)C1OCc1ccccc1 (stereo not shown) [compound 388]
Human δ-opioid (DOP); human DOP membranes
  A1: inhibition of radioligand binding: − (“−” indicates less than 50% inhibition at 10 μM)
Human κ-Opioid (KOP); human KOP membranes
  A2: inhibition of radioligand binding: − (“−” indicates less than 50% inhibition at 10 μM)
Human Melanocortin (MC3); human MC3 membranes
  A3: inhibition of radioligand binding: − (“−” indicates less than 50% inhibition at 10 μM)
Human Melanocortin (MC4); human MC4 membranes
  A4: inhibition of radioligand binding: + (“+” indicates greater than 50% inhibition at 10 μM)
Human melanocortin (MC5); human MC5 membranes, 10 µM
  A5: inhibition of radioligand binding: + (“+” indicates greater than 50% inhibition at 10 μM)
[1]; [3]
  A6: inhibition of radioligand binding: − (“−” indicates less than 50% inhibition at 10 μM)
Human μ-opioid (MOP); human MOP membranes
  A7: inhibition of radioligand binding: − (“−” indicates less than 50% inhibition at 10 μM)
Human neurokinin (NK1); human NK1 membranes
  A8: inhibition of radioligand binding: + (“+” indicates greater than 50% inhibition at 10 μM)
[2]; human NPY-Y1 membranes
  A9: inhibition of radioligand binding: − (“−” indicates less than 50% inhibition at 10 μM)
Human opioid (ORL1); human ORL1 membranes
  A10: inhibition of radioligand binding: − (“−” indicates less than 50% inhibition at 10 μM)
Mouse urotensin (mUR2); mouse mUR2 membranes
  A11: inhibition of radioligand binding: − (“−” indicates less than 50% inhibition at 10 μM)

## COC[C@H]1OC(OCc2ccc3ccccc3c2)[C@H](NC(=O)CCCN)[C@@H](OCc2ccc(Cl)cc2)[C@@H]1O (stereo partly shown) [compound 340]
Human δ-opioid (DOP)
  A1: inhibition of radioligand binding, human δ-opioid (DOP): − (“−” indicates less than 50% inhibition at 10 μM)
Human κ-Opioid (KOP)
  A2: inhibition of radioligand binding, human κ-opioid (KOP): − (“−” indicates less than 50% inhibition at 10 μM)
Human Melanocortin (MC3)
  A3: inhibition of radioligand binding, human melanocortin (MC3): − (“−” indicates less than 50% inhibition at 10 μM)
Human Melanocortin (MC4)
  A4: inhibition of radioligand binding, human melanocortin (MC4): − (“−” indicates less than 50% inhibition at 10 μM)
Human melanocortin (MC5)
  A5: inhibition of radioligand binding, human melanocortin (MC5): − (“−” indicates less than 50% inhibition at 10 μM)
[1]; [125I]-S36057
  A6: inhibition of radioligand binding, human melanin-concentrating hormone (MCH1): − (“−” indicates less than 50% inhibition at 10 μM)
Human μ-opioid (MOP)
  A7: inhibition of radioligand binding, human μ-opioid (MOP): − (“−” indicates less than 50% inhibition at 10 μM)
Human neurokinin (NK1)
  A8: inhibition of radioligand binding, human neurokinin (NK1): + (“+” indicates greater than 50% inhibition at 10 μM)
[2]
  A9: inhibition of radioligand binding, human neuropeptide Y (NPY-Y1): − (“−” indicates less than 50% inhibition at 10 μM)
Human opioid (ORL1)
  A10: inhibition of radioligand binding, human opioid (ORL1): − (“−” indicates less than 50% inhibition at 10 μM)
Mouse urotensin (mUR2)
  A11: inhibition of radioligand binding, mouse urotensin (mUR2): − (“−” indicates less than 50% inhibition at 10 μM)

## CSC1OC(COCc2ccc(Cl)cc2)C(O)C(OCc2ccccc2)C1NC(=O)CNC(=N)N (stereo not shown) [compound 253]
Human δ-opioid (DOP); FlashPlate
  A1: inhibition of radioligand binding: − (“−” indicates less than 50% inhibition at 10 μM)
Human κ-Opioid (KOP); filtration
  A2: inhibition of radioligand binding: − (“−” indicates less than 50% inhibition at 10 μM)
Human Melanocortin (MC3); FlashPlate
  A3: inhibition of radioligand binding: − (“−” indicates less than 50% inhibition at 10 μM)
Human Melanocortin (MC4); FlashPlate
  A4: inhibition of radioligand binding: − (“−” indicates less than 50% inhibition at 10 μM)
Human melanocortin (MC5); FlashPlate
  A5: inhibition of radioligand binding: + (“+” indicates greater than 50% inhibition at 10 μM)
[1]; [125I]-S36057, FlashPlate
  A6: inhibition of radioligand binding: − (“−” indicates less than 50% inhibition at 10 μM)
Human μ-opioid (MOP); FlashPlate
  A7: inhibition of radioligand binding: − (“−” indicates less than 50% inhibition at 10 μM)
Human neurokinin (NK1); filtration
  A8: inhibition of radioligand binding: + (“+” indicates greater than 50% inhibition at 10 μM)
[2]; FlashPlate
  A9: inhibition of radioligand binding: − (“−” indicates less than 50% inhibition at 10 μM)
Human opioid (ORL1); FlashPlate
  A10: inhibition of radioligand binding: − (“−” indicates less than 50% inhibition at 10 μM)
Mouse urotensin (mUR2); FlashPlate
  A11: inhibition of radioligand binding: − (“−” indicates less than 50% inhibition at 10 μM)

## N=C(N)NCC(=O)NC1C(OCc2ccc(-c3ccccc3)cc2)OC(COCc2ccc(Cl)cc2)C(O)C1OCc1ccc(Cl)cc1 (stereo not shown) [compound 401]
Human δ-opioid (DOP); human DOP membranes
  A1: inhibition of radioligand binding: − (“−” indicates less than 50% inhibition at 10 μM)
Human κ-Opioid (KOP); human KOP membranes
  A2: inhibition of radioligand binding: − (“−” indicates less than 50% inhibition at 10 μM)
Human Melanocortin (MC3); human MC3 membranes
  A3: inhibition of radioligand binding: + (“+” indicates greater than 50% inhibition at 10 μM)
Human Melanocortin (MC4); human MC4 membranes
  A4: inhibition of radioligand binding: + (“+” indicates greater than 50% inhibition at 10 μM)
Human melanocortin (MC5); human MC5 membranes
  A5: inhibition of radioligand binding: + (“+” indicates greater than 50% inhibition at 10 μM)
[1]; [3]
  A6: inhibition of radioligand binding: + (“+” indicates greater than 50% inhibition at 10 μM)
Human μ-opioid (MOP); human MOP membranes
  A7: inhibition of radioligand binding: − (“−” indicates less than 50% inhibition at 10 μM)
Human neurokinin (NK1); human NK1 membranes
  A8: inhibition of radioligand binding: + (“+” indicates greater than 50% inhibition at 10 μM)
[2]; human NPY-Y1 membranes
  A9: inhibition of radioligand binding: − (“−” indicates less than 50% inhibition at 10 μM)
Human opioid (ORL1); human ORL1 membranes
  A10: inhibition of radioligand binding: + (“+” indicates greater than 50% inhibition at 10 μM)
Mouse urotensin (mUR2); mouse mUR2 membranes
  A11: inhibition of radioligand binding: − (“−” indicates less than 50% inhibition at 10 μM)

## NCCCC(=O)NC1C(OCc2ccc3ccccc3c2)OC(COCc2ccc3ccccc3c2)C(O)C1OCc1ccc2ccccc2c1 (single isomer, unassigned) [compound 461]
Human δ-opioid (DOP); human DOP membranes
  A1: inhibition of radioligand binding: − (“−” indicates less than 50% inhibition at 10 μM)
Human κ-Opioid (KOP); human KOP membranes
  A2: inhibition of radioligand binding: − (“−” indicates less than 50% inhibition at 10 μM)
Human Melanocortin (MC3); human MC3 membranes, 10 µM
  A3: inhibition of radioligand binding: + (“+” indicates greater than 50% inhibition at 10 μM)
Human Melanocortin (MC4); human MC4 membranes, 10 µM
  A4: inhibition of radioligand binding: + (“+” indicates greater than 50% inhibition at 10 μM)
Human melanocortin (MC5); human MC5 membranes
  A5: inhibition of radioligand binding: + (“+” indicates greater than 50% inhibition at 10 μM)
[1]; [125I]-S36057, human MCH1 membranes, 10 µM
  A6: inhibition of radioligand binding: + (“+” indicates greater than 50% inhibition at 10 μM)
Human μ-opioid (MOP); human MOP membranes, 10 µM
  A7: inhibition of radioligand binding: + (“+” indicates greater than 50% inhibition at 10 μM)
Human neurokinin (NK1); human NK1 membranes
  A8: inhibition of radioligand binding: + (“+” indicates greater than 50% inhibition at 10 μM)
[2]; human NPY-Y1 membranes
  A9: inhibition of radioligand binding: − (“−” indicates less than 50% inhibition at 10 μM)
Human opioid (ORL1); human ORL1 membranes, 10 µM
  A10: inhibition of radioligand binding: + (“+” indicates greater than 50% inhibition at 10 μM)
Mouse urotensin (mUR2); mouse mUR2 membranes
  A11: inhibition of radioligand binding: − (“−” indicates less than 50% inhibition at 10 μM)

— US20080009418A1, “Selective Inhibitors” (Alchemia LTD., priority 2004, published 2008)
